Test results reported in patent EP4566598A1, “COMPOSITIONS PROVIDING SGLT2I AND BHB ACTIVITY AND METHODS OF USE TO TREAT HUMAN DISEASE” (priority 2023, dated 2025).
“And” between values parts separate entries of the source, which are not always exact repeats. Equal values may be shown once. Read-outs that look alike come from different tables or passages of the source. Values belong to the compound of their own block, whether it stands above or below them.

Assays:
[1] = cited from earlier work
[2] = target: T1, SGLT2 (Homo sapiens, UniProt P31639); conditions: cited from earlier work
T1 sequence (P31639 1-672): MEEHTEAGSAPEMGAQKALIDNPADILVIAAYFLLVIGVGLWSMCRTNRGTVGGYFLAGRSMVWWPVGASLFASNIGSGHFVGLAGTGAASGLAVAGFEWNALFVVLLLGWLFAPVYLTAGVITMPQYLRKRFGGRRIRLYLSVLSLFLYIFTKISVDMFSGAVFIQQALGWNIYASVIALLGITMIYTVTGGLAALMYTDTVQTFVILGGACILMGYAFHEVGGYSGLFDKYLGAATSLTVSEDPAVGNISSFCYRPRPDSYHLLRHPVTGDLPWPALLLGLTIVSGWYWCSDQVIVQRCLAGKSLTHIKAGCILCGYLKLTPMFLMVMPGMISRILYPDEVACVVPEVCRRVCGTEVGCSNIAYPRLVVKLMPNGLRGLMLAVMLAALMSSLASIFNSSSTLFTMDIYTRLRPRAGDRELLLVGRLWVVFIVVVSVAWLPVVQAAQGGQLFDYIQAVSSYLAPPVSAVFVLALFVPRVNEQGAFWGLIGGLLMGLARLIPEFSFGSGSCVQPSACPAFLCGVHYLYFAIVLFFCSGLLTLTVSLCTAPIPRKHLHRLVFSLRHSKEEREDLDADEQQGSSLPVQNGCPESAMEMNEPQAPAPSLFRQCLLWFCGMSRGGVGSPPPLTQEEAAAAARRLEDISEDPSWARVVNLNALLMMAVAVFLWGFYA

[3] = tested on: AAA; conditions: PPE induced AAA; cited from earlier work
[4] = 28-day study, 28 volunteers; cited from earlier work
[5] = tested on: abdominal PVAT; conditions: mice fed with Western diet; cited from earlier work
[6] = tested on: AAA; conditions: apoE-/- Ang II induction model; cited from earlier work
[7] = tested on: rat aortic smooth muscle cells; conditions: in vitro; cited from earlier work
[8] = cited from earlier work; remark: listed apart in the source
[9] = cited from earlier work; remark: listed apart in the source
[10] = mice; cited from earlier work
[11] = tested on: human VSMCs; conditions: dependent on TRAF3IP2/ROS/NLRP3/caspase-1; cited from earlier work
[12] = in vivo
[13] = cited from earlier work; remark: listed apart in the source
[14] = high-fat diet fed mice; cited from earlier work
[15] = cited from earlier work; remark: listed apart in the source
[16] = tested on: AAA; conditions: murine models; cited from earlier work
[17] = tested on: vSMCs; conditions: via ROS-Nrf2 pathway; cited from earlier work

Compound: CCOc1ccc(Cc2cc([C@@H]3O[C@H](CO)[C@@H](O)[C@H](O)[C@H]3O)ccc2Cl)cc1 [Dapagliflozin, (2S,3R,4R,5S,6R)-2-{4-chloro-3-[(4-ethoxyphenyl)methyl]phenyl}-6-(hydroxymethyl)oxane-3,4,5-triol]
Bioavailability ([1]; in vivo): 78%
t1/2 ([1]; in vivo): 12.9 h
tmax ([1]; in vivo): 1 to 1.5 h
SGLT2 selectivity over SGLT1 [2]: 1200 fold
aneurysmal induction and expansion [3]: significantly impeded

Compound: C[C@@H](O)CCOC(=O)C[C@@H](C)O [KE-BHB]
effect on body weights or composition, fasting blood glucose, cholesterol, triglyceride, or electrolyte concentrations, blood gases or kidney function [4]: no effect

Compound: OC[C@H]1O[C@@H](c2ccc(F)c(Cc3cc4ccccc4s3)c2)[C@H](O)[C@@H](O)[C@@H]1O [Ipragliflozin]
t1/2 (hours) ([1]; 50 mg dose): 15-16 (50 mg dose) hours and 15–16 (50 mg dose) hours
tmax ([1]; 50 mg): 1 h
Bioavailability ([1]; in vivo): 90%
inflammation, fibrosis, and adipocyte death of abdominal PVAT [5]: attenuated
SGLT2 selectivity over SGLT1 [2]: 360 fold

Compound: OC[C@H]1O[C@@H](c2ccc(Cl)c(Cc3ccc(O[C@H]4CCOC4)cc3)c2)[C@H](O)[C@@H](O)[C@@H]1O [Empagliflozin]
effect on AAA [6]: impedes AAA
aortic smooth muscle cell proliferation [7]: significantly decreased
Cmax ([1]; 10 mg dose): 259 nM
t1/2 ([1]; 10 mg dose): 13.2 h
t1/2 (hours) ([1]; 10 mg dose): 13.2 (10 mg dose); hours
Cmax ([1]; 25 mg dose): 687 nM
t1/2 ([1]; 25 mg dose): 13.3 h
t1/2 (hours) ([1]; 25 mg dose): 13.3h (25 mg dose) hours
tmax ([1]; in vivo): 1.5 h
Bioavailability ([8]; dogs): 89%
Bioavailability ([9]; rats): 31%
Bioavailability [10]: 90-97% and 90–97%
secretion of IL-1b and IL-18 [11]: inhibits

persistence of BHB elevation [12]: 4 to 5 h
Compound: C[C@H](O)CC(=O)O [S-BHB]
stability in human plasma compared with R/D BHB ([13]; human plasma): far more stable
sustained in plasma, relative to (D/R) BHB ([13]; plasma): more than 2 x

Compound: CCOc1ccc(Cc2cc([C@@H]3S[C@H](CO)[C@@H](O)[C@H](O)[C@H]3O)c(OC)cc2C)cc1 [Luseogliflozin]
Cmax ([1]; in vivo): 119 ± 27.0 ng/mL
t1/2 ([1]; in vivo): 9.24 ± 0.928 h
tmax ([1]; in vivo): 0.625 ± 0.354 h
intimal hyperplasia after bilateral femoral artery wire injury [14]: reducing intimal hyperplasia
Bioavailability ([8]; male dogs): 97.2%
Bioavailability ([9]; female rats): 58.2%
SGLT2 selectivity over SGLT1 [2]: 1650 fold

Compound: CCc1ccc(Cc2ccc3c(c2)[C@]2(OC3)O[C@H](CO)[C@@H](O)[C@H](O)[C@H]2O)cc1 [Tofogliflozin]
Cmax ([1]; 10 mg dose): 489 ng/mL
t1/2 ([1]; 10 mg dose): 6.8 h
Bioavailability ([1]; 10 mg): 97.50%
tmax ([1]; 10 mg): 0.75 h
Protein binding [15]: 83%
SGLT2 selectivity over SGLT1 [2]: 2900 fold

Compound: Nc1ccccc1NC(=O)c1ccc(CNC(=O)OCc2cccnc2)cc1 [MS-275]
effect on AAA [16]: reduce AAA

Compound: CCOc1ccc(Cc2cc([C@]34OC[C@](CO)(O3)[C@@H](O)[C@H](O)[C@H]4O)ccc2Cl)cc1 [Ertugliflozin]
Cmax ([1]; 15 mg dose): 268 ng/mL (15 mg dose)
Bioavailability ([1]; in vivo): 70-90%
t1/2 ([1]; in vivo): 11 to 17 h
tmax ([1]; in vivo): 0.5 to 1.5 h
Protein binding [15]: 95%
SGLT2 selectivity over SGLT1 [2]: 2000 fold

Compound: Cc1ccc([C@@H]2O[C@H](CO)[C@@H](O)[C@H](O)[C@H]2O)cc1Cc1ccc(-c2ccc(F)cc2)s1 [Canagliflozin]
t1/2 ([1]; 100 mg dose): 10.6 h
t1/2 (hours) ([1]; 100 mg dose): 10.6 (100 mg dose); hours
Bioavailability ([1]; 300 mg dose): 65% (300 mg dose)
t1/2 ([1]; 300 mg dose): 13.1 h
t1/2 (hours) ([1]; 300 mg dose): 13.1 (300 mg dose) hours
tmax ([1]; in vivo): 1 to 2 h
expression of heme oxygenase-1 [17]: stimulates
Protein binding [15]: 99%
SGLT2 selectivity over SGLT1 [2]: 250 fold

persistence of BHB elevation [12]: ~ 2.5 hours
Compound: C[C@@H](O)CC(=O)O [R-BHB, R-beta hydroxybutyrate]
